Data on one molecule can be found in publication PMC8820820, “Feasibility and safety of targeting mitochondria for cancer therapy – preclinical characterization of gamitrinib, a first-in-class, mitochondriaL-targeted small molecule Hsp90 inhibitor” (Cancer Biology & Therapy, 2022).

The structures appear in SMILES notation. Where two headings read alike, the source gives them in different places.

For one data set, the target named is T1, CYP1A2 (Homo sapiens, UniProt P05177).
T1 construct: tissue Bioreclamation IVT; host or cells: pooled human liver microsomes
T1 sequence (P05177 1-516): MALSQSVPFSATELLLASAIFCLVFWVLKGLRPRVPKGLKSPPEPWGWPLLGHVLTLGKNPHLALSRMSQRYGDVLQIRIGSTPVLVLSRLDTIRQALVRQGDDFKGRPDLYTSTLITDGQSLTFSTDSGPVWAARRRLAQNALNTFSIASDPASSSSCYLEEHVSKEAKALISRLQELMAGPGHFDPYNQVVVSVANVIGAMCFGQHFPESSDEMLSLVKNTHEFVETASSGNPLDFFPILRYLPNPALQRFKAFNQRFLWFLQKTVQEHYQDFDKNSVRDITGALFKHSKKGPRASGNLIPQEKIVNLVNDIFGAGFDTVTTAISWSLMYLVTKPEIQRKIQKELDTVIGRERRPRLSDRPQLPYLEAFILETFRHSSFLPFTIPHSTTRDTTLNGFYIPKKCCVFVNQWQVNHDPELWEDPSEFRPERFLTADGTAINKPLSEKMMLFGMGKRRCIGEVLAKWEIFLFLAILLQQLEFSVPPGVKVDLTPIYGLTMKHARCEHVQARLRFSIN
Put plainly: CYP inhibition in liver microsomes. It is filed as in vitro ADME. An excerpt:
CYP inhibition in liver microsomes.

Another data set has as its target T2, Kir2.1 (Homo sapiens, UniProt P63252).
T2 sequence (P63252 1-427): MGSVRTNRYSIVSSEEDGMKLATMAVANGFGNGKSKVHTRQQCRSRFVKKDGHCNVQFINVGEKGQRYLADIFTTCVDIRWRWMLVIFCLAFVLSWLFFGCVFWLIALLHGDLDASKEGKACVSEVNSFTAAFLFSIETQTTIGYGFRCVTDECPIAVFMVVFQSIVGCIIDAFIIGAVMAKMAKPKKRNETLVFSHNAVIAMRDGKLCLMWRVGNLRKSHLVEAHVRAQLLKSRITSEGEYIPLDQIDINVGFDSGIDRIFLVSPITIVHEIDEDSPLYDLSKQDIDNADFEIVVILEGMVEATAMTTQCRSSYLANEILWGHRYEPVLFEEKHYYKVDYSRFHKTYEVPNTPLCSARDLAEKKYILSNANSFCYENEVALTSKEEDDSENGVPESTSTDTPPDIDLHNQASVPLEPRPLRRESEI
In words: Ion channel screening. It is filed as cell-based. The settings on record: 10 µM, pulse 10.

A further data set relates to beagle dogs. In words: Toxicity in beagle dogs. It is filed as in vivo. The procedure:
Eighteen male and female (5–6 mo old) purebred beagle dogs (Cumberland, VA) were acclimated for 47 d (20°C to 26°C, relative humidity 30–70%, 10 or greater air changes/h, and a 12-h light/dark cycle) prior to study initiation. Animals were given water ad libitum and Certified Canine Diet #5007 (PMI Nutrition International Certified LabDiet®) for 4 to 5 h each day. At study initiation, animal body weights ranged from 8.6 to 11.5 kg for males and 6.0 to 9.4 kg for females. At least 1 week prior to initiation of dosing, animals were fasted overnight, anesthetized, and a catheter attached to a subcutaneous vascular access port was surgically implanted into a jugular vein. Animals were acclimated to infusion jackets prior to catheter implantation surgery. Animals were infused with sterile saline at a dose rate of 5 mL/h when the vascular access ports were accessed and when animals were connected to the infusion system (except when dosed with the test or vehicle control article). The patency of each catheter was checked as needed. Prednisolone tablets were administered orally at 2 mg/kg the night prior to dosing. Diphenhydramine (5 mg/kg; IM injection 0.1 mL/kg, 50 mg/mL) was administered prior to dosing and post the start of infusion (d 1 only). Male and female dogs received dose levels of Gamitrinib of 1.25, 3.33 and 6.25 mg/kg/dose formulated as indicated above during a 1 h infusion on d 1, 8, 11, 15, 18, 22, 25, 29, 32, and 36 at a volume of 2 mL/kg. The vehicle control was as above. […] Dosing was stopped, and 23 of 24 animals were administered additional diphenhydramine, 11 were administered Flunixin meglumine and buprenorphine, and 6 were administered acepromazine. Symptoms subsided in all animals after completion of these interventions. As a result of these observations, the polysorbate levels, which were increased from 0.025% (w/v) to 0.125% (w/v) to minimize precipitation, were returned to the original concentrations; 2 mg/kg prednisone was administered orally the night prior to dosing; and the diphenhydramine pretreatment dose was updated to 5 mg/kg 15 to 30 min prior to dosing. Detailed observations were conducted for each animal up to seven times during the predose phase, prior to dosing on d 1, 8, 15, 22, 29, and 36 of the dosing phase, and on d 1, 7, and 14 of the recovery phase. Blood samples (1 mL) were collected via the cephalic vein 5, 15, and 30 min and 1, 4, 8, and 24 h post the end of infusion on d 8 and 36 of the dosing phase. Formalin-fixed and paraffin-embedded tissue samples collected at the end of the study (d 39) were processed for histologic examination.

The next data set addresses T3, CYP2A6 (Homo sapiens, UniProt P11509).
T3 sequence (P11509 1-494): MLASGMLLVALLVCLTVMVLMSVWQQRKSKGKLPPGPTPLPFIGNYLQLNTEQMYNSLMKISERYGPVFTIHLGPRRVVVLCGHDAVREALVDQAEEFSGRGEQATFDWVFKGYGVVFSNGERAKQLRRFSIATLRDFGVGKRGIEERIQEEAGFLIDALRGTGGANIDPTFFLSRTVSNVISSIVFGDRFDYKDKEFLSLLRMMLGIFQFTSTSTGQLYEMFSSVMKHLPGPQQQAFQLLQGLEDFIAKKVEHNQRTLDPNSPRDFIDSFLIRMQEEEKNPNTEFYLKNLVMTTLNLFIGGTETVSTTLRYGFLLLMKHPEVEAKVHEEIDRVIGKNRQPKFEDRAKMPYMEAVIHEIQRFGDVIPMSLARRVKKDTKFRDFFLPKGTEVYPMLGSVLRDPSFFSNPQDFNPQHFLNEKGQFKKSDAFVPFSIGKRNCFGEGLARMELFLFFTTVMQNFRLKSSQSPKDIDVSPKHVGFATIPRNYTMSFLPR
The settings on record: microsomes.

In a further data set the target is CYP2C9 (Homo sapiens, UniProt P11712). The conditions noted are these: microsomes.
CYP2C9, sequence (P11712 whole entry): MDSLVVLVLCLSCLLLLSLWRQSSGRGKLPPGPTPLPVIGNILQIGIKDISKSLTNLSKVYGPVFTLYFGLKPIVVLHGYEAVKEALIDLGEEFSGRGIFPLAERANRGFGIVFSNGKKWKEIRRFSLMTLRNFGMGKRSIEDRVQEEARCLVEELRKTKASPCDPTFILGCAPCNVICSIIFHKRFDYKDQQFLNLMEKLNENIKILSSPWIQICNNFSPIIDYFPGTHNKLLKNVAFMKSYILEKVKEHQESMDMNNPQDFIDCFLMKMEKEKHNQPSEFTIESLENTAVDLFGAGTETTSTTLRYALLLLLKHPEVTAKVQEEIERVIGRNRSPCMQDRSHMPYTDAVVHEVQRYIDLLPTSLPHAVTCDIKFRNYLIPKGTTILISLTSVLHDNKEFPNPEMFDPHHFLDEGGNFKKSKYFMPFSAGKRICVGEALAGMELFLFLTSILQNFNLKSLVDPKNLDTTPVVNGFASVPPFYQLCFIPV
The target in another data set is CYP3A4 (Homo sapiens, UniProt P08684). The conditions noted are these: microsomes.
CYP3A4, sequence (P08684 whole entry): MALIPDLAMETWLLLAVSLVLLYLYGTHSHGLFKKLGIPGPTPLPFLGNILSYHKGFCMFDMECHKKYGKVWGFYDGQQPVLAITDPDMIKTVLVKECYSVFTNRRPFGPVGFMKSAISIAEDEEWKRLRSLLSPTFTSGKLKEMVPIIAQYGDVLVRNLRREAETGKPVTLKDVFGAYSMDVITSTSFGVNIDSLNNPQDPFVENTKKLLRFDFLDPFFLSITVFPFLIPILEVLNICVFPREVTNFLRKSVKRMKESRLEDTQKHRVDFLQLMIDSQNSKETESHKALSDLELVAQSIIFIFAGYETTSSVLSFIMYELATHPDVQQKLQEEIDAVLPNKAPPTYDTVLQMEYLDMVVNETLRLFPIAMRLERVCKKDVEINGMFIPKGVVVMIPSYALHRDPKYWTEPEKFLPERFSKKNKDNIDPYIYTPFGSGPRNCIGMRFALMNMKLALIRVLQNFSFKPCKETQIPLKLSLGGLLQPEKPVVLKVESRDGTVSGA
The subject of the next data set is NCI 60 cell-line screen. Set-up: method as in PMID 20876793, PMID 21285984. The conditions noted are these: read-out: IC50, anticancer activity, cited from earlier work.

Protocol for CYP2A6: (§1) CYP inhibition in liver microsomes. […] Samples were analyzed for metabolite formation by LC-MS/MS. The results were expressed using the peak area ratio of analyte to internal standard, based on the calibration curves.
(§2) Where Range=fitted uninhibited value, s=slope factor, x=inhibitor concentration, y=% control activity.
Protocol for CYP2C9: as §1, §2
Protocol for CYP3A4: as §1, §2
Description for Kir2.1: Ion channel screening. […] Human Kir2.1 currents were evoked from a holding potential of -20 mV by a series of 10 500 msec pulses to -120 mV using a 200 msec interval between pulses. The parameters measured were the amplitudes of the instantaneous inward currents evoked on stepping to -120 mV for the 1st pulse and the maximum inward current at the end of the 10th hyperpolarizing pulse. For all experiments, data were filtered for seal quality, seal drop, and current amplitude.

Take `COC1C=CC=C(C)C(=O)NC2=CC(=O)C(NCCCCCC[P+](c3ccccc3)(c3ccccc3)c3ccccc3)=C(CC(C)CC(OC)C(O)C(C)C=C(C)C1OC(N)=O)C2=O.F[P-](F)(F)(F)(F)F` (stereo not drawn) [Gamitrinib]: the IC50 on CYP1A2 was 32.9 µM; on CYP2A6, 24 µM; on CYP2C9 it was 1.1 µM; at CYP3A4, 0.12 to 0.2 µM; with NCI 60 cell-line screen (NCI 60 cell-line screen, all lines), 0.16 to 29 µM; in the data set on NCI 60 cell-line screen (breast adenocarcinoma cell lines), 0.16 to 3.3 µM. For the same molecule, the half-inhibitory concentration (IC50) in the data set on NCI 60 cell-line screen (colon adenocarcinoma cell lines) is 0.35 to 29 µM; in the data set with NCI 60 cell-line screen (melanoma cell lines) it was 0.36 to 2.7 µM. The “inhibition of Kir2.1 currents” value against Kir2.1 was −7.3 ± 3.4%. Besides, in the data set with beagle dogs (dog, in vivo), the “Bone marrow and liver parameters” value is on record as “unremarkable”. In addition, the organ weight entry in the data set with beagle dogs (dog, in vivo) is given as “No Gamitrinib-related changes in organ weight”. The kidney microscopic findings entry in the data set with beagle dogs (dog, in vivo, 6.25 mg/kg) is recorded as “slight to moderate kidney tubular degeneration/regeneration”. For the same molecule, the “serum urea nitrogen and creatinine” value in the data set on beagle dogs (dog, in vivo, 6.25 mg/kg) was “trend of increased serum urea nitrogen and creatinine”. In the data set on beagle dogs (dogs, IV for 36 d), this molecule yielded an NOAEL of 3.33 mg/kg/dose. In addition, the “highest non-severely toxic dose (HNSTD)” value with beagle dogs (dogs, IV for 36 d) worked out at 6.25 mg/kg/dose.
